Source: patent US11459298B2, “Class of dicationic compounds as well as the preparative method and the use thereof” (WEST CHINA HOSPITAL, SICHUAN UNIVERSITY, priority 2018, dated 2022)

What was measured:
[1] = tested on: New Zealand white rabbits; assay: Experiment on muscle relaxation in anesthetized rabbits (TOF neuromuscular transmission monitor); format: in vivo, rabbit; conditions: for ED (2 x ED95): Oryctolagus cuniculus, intravenous injection, propofol anesthesia; for ED (2 x ED95) / Onset time / Recovery time: N = 8; for Onset time: TOF=0, after i.v. 2× ED95 equivalent dose; for Recovery time: TOF=90%, after i.v. 2× ED95 equivalent dose; for change characteristics of TOF 1-4 after administration: depolarizing vs non-depolarizing pattern
Protocol: Male New Zealand white rabbits weighing 2-3.5 kg were used as experimental animals for muscle relaxation test. The specific procedures were: propofol emulsion was intravenously administrated to induce and maintain general anesthesia (induction dose: 10 mg/kg; maintenance dose: […]). Tracheal intubation was carried out and respiratory support was used.

[2] = tested on: human body; conditions: after single administration, clinical use; cited from earlier work

Molecule	ED (2 x ED95) [1]	Onset time [1]	Recovery time [1]	change characteristics of TOF 1-4 after administration [1]	duration of muscle relaxation / action time [2]
COc1ccc(C[C@@H]2c3cc(OC)c(OC)cc3CC[N@+]2(C)CCC(=O)OCCCCCOC(=O)CC[N@@+]2(C)CCc3cc(OC)c(OC)cc3[C@H]2Cc2ccc(OC)c(OC)c2)cc1OC [Cisatracurium, reference compound]	0.08 mg/kg	>90 s	17.6 ± 5.2 min	successively and gradually decreased, rather than in equal proportion	–
C[N+](CCCCOC(=O)OCOC(=O)C[N+]1(Cc2ccc([N+](=O)[O-])cc2)CCCCC1)(Cc1ccccc1)Cc1ccc([N+](=O)[O-])cc1 (centres unmarked) [Compound 1]	0.8 mg/kg	<40 s	5.2 ± 1.1 min	–	–
C[N+](CCOC(=O)OCOC(=O)C[N+]1(Cc2ccc([N+](=O)[O-])cc2)CCCCC1)(Cc1ccccc1)Cc1ccc([N+](=O)[O-])cc1 (centres unmarked) [Compound 2]	0.9 mg/kg	<40 s	6.4 ± 1.4 min	–	–
C[N+](CCOC(=O)OCOC(=O)CCC[N+]1(Cc2ccc([N+](=O)[O-])cc2)CCCCC1)(Cc1ccc(F)cc1)Cc1ccc([N+](=O)[O-])cc1 (centres unmarked) [Compound 3]	1.8 mg/kg	<40 s	4.8 ± 0.5 min	–	–
C[N+](CCOC(=O)OCOC(=O)CCC[N+]1(Cc2ccc([N+](=O)[O-])cc2)CCCCC1)(Cc1ccc(Cl)cc1)Cc1ccc([N+](=O)[O-])cc1 (centres unmarked) [Compound 4]	1.4 mg/kg	<40 s	5.4 ± 0.9 min	–	–
C[N+](CCOC(=O)OCOC(=O)CCC[N+]1(Cc2ccc([N+](=O)[O-])cc2)CCCCC1)(Cc1ccc([N+](=O)[O-])cc1)Cc1ccc(Cl)cc1Cl (centres unmarked) [Compound 5]	1.6 mg/kg	<40 s	5.2 ± 1.2 min	–	–
C[N+](CCOC(=O)OCOC(=O)CCC[N+]1(Cc2ccc([N+](=O)[O-])cc2)CCCCC1)(Cc1ccc([N+](=O)[O-])cc1)Cc1c(F)cccc1F (centres unmarked) [Compound 6]	0.8 mg/kg	<40 s	4.1 ± 1.1 min	–	–
C[N+](CCOC(=O)OCOC(=O)CCC[N+]1(Cc2ccc([N+](=O)[O-])cc2)CCCCC1)(Cc1ccc([N+](=O)[O-])cc1)Cc1ccc([N+](=O)[O-])cc1 [Compound 7]	1.6 mg/kg	<40 s	5.2 ± 1.1 min	–	–
C[N+](CCOC(=O)OCOC(=O)CCC[N+]1(Cc2ccc([N+](=O)[O-])cc2)CCCCC1)(Cc1ccc(C#N)cc1)Cc1ccc([N+](=O)[O-])cc1 (centres unmarked) [Compound 8]	1.7 mg/kg	<40 s	7.2 ± 1.4 min	–	–
C[N+](CCOC(=O)OCOC(=O)CCC[N+]1(Cc2ccc([N+](=O)[O-])cc2)CCCCC1)(Cc1ccc([N+](=O)[O-])cc1)Cc1ccc(C(F)(F)F)cc1 (centres unmarked) [Compound 9]	1.6 mg/kg	<40 s	5.2 ± 1.2 min	–	–
C[N+](CCOC(=O)OCOC(=O)CCC[N+]1(Cc2ccc(C(F)(F)F)cc2)CCCCC1)(Cc1ccccc1)Cc1ccc([N+](=O)[O-])cc1 (centres unmarked) [Compound 10]	2.4 mg/kg	<40 s	6.2 ± 0.9 min	–	–
C[N+](CCOC(=O)OCOC(=O)CCC[N+]1(Cc2ccc([N+](=O)[O-])cc2)CCCCC1)(Cc1ccc(-c2ccccc2)cc1)Cc1ccc([N+](=O)[O-])cc1 (centres unmarked) [Compound 11]	1.5 mg/kg	<40 s	7.7 ± 1.6 min	–	–
COc1ccc(C[N+](C)(CCOC(=O)OCOC(=O)CCC[N+]2(Cc3ccc(OC)c(OC)c3)CCCCC2)Cc2ccc(OC)c(OC)c2)cc1OC [Compound 12]	4.4 mg/kg	<40 s	6.3 ± 2.1 min	–	–
Cc1ccc(C[N+](C)(CCCCOC(=O)OCOC(=O)C[N+]2(Cc3ccc(C)c(C)c3)CCCCC2)Cc2ccc(C)c(C)c2)cc1C [Compound 13]	6.2 mg/kg	<40 s	6.9 ± 1.7 min	–	–
C[N+](CCOC(=O)OCOC(=O)COCC[N+]1(Cc2ccc([N+](=O)[O-])cc2)CCCCC1)(Cc1ccccc1)Cc1ccc([N+](=O)[O-])cc1 (centres unmarked) [Compound 19]	0.8 mg/kg	<40 s	4.1 ± 0.8 min	–	–
CC1CC[N+](CCCC(=O)OCOC(=O)OCC[N+](C)(Cc2ccccc2)Cc2ccc([N+](=O)[O-])cc2)(Cc2ccc([N+](=O)[O-])cc2)CC1 (centres unmarked) [Compound 35]	1 mg/kg	<40 s	7.2 ± 2.3 min	–	–
C[N+](CCOC(=O)OCOC(=O)CCC[N+]1(Cc2ccc([N+](=O)[O-])cc2)CCCCC1)(Cc1ccc([N+](=O)[O-])cc1)Cc1ccsc1 (centres unmarked) [Compound 38]	1.2 mg/kg	<40 s	4.4 ± 1.1 min	–	–
C[N+](CCOC(=O)OCOC(=O)CCC[N+]1(Cc2ccc([N+](=O)[O-])cc2)CCC(F)(F)CC1)(Cc1ccccc1)Cc1ccc([N+](=O)[O-])cc1 (centres unmarked) [Compound 45]	0.8 mg/kg	<40 s	5.1 ± 1.4 min	–	–
C[N+](CCOC(=O)OCOC(=O)CCC[N+]1(Cc2ccc([N+](=O)[O-])cc2)CCCC1)(Cc1ccc(F)cc1)Cc1ccc([N+](=O)[O-])cc1 (centres unmarked) [Compound 47]	1.4 mg/kg	<40 s	3.1 ± 0.7 min	–	–
C[N+](C)(C)CCOC(=O)CCC(=O)OCC[N+](C)(C)C [Succinylcholine, reference compound]	1.8 mg/kg	<40 s	13.3 ± 3.5 min	decreased in the same proportion until disappearance	10 min
CC(=O)O[C@H]1C[C@@H]2CC[C@@H]3[C@H](CC[C@@]4(C)[C@H]3C[C@H]([N+]3(C)CCCCC3)[C@@H]4OC(C)=O)[C@@]2(C)C[C@@H]1[N+]1(C)CCCCC1 [pancuronium]	–	–	–	–	> 60 min
micuronium	–	–	–	–	15 to 20 min
